Experimental data as given in the supplement of paper PMC10307832.

Assays:
Assay in all cases: relative viability (nuclei count vs DMSO), 5 days (fraction); higher = more cells survive
[1] = compound: Cn1nnc2c(C(N)=O)ncn2c1=O [Temozolomide] + CS(=O)(=O)CCNCc1ccc(-c2ccc3ncnc(Nc4ccc(OCc5cccc(F)c5)c(Cl)c4)c3c2)o1 [Lapatinib] (partner 2 µM)
Method in brief: (§1)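 For relative viability, nuclei counts in treated wells were divided by those in vehicle wells. Lung cancer cell lines had been pin-tool dosed in 1536-well plates the day after seeding and cultured for 5 days, then fixed and stained in one step (final 0.05% Triton X-100, 1% formaldehyde, 1 ug/ml Hoechst) and imaged at 4×. Doses were one drug alone or a fixed anchor-drug dose plus five library-drug doses (not always all listed) in √10 steps, and values are duplicate-plate medians.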

[2] = compound: C[C@@H](C(=O)N[C@@H](C1CCCCC1)C(=O)N2CCC[C@H]2C(=O)N[C@@H]3[C@@H](CC4=CC=CC=C34)OCC#CC#CCO[C@@H]5CC6=CC=CC=C6[C@@H]5NC(=O)[C@@H]7CCCN7C(=O)[C@H](C8CCCCC8)NC(=O)[C@H](C)NC)NC [AZD5582] + COc1cccc2cc(-c3nc([C@H]4CC[C@H](C(=O)O)CC4)n4ncnc(N)c34)[nH]c12 [OSI-027] (partner 0.5 µM)
Method in brief: as §1

[3] = compound: Cn1nnc2c(C(N)=O)ncn2c1=O [Temozolomide] + CCNC(=O)c1noc(-c2cc(C(C)C)c(O)cc2O)c1-c1ccc(CN2CCOCC2)cc1 [Luminespib] (partner 0.01 µM)
Method in brief: as §1

[4] = compound: Cn1nnc2c(C(N)=O)ncn2c1=O [Temozolomide] + NC(=O)Nc1cc(-c2cccc(F)c2)sc1C(=O)N[C@H]1CCCNC1 [AZD7762] (partner 0.2 µM)
Method in brief: as §1

| Cell Line | relative viability ([1]; first compound 0.2 µM) | relative viability ([1]; first compound 0.6325 µM) | relative viability ([1]; first compound 2 µM) | relative viability ([1]; first compound 6.325 µM) | relative viability ([1]; first compound 20 µM) | relative viability ([2]; first compound 0.001581 µM) | relative viability ([2]; first compound 0.005 µM) | relative viability ([2]; first compound 0.01581 µM) | relative viability ([2]; first compound 0.05 µM) | relative viability ([3]; first compound 0.2 µM) | relative viability ([3]; first compound 0.6325 µM) | relative viability ([3]; first compound 2 µM) | relative viability ([3]; first compound 6.325 µM) | relative viability ([3]; first compound 20 µM) | relative viability ([4]; first compound 0.2 µM) | relative viability ([4]; first compound 0.6325 µM) | relative viability ([4]; first compound 2 µM) | relative viability ([4]; first compound 6.325 µM) | relative viability ([4]; first compound 20 µM) |
| --- | --- | --- | --- | --- | --- | --- | --- | --- | --- | --- | --- | --- | --- | --- | --- | --- | --- | --- | --- |
| NCI-H2228 | 1.15 | 1.04 | 1.3 | 0.959 | 1.18 | 0.524 | 0.749 | 0.62 | 0.237 | 0.125 | 0.162 | 0.104 | 0.149 | 0.137 |  |  |  |  |  |
| NCI-H1650 | 0.991 | 0.925 | 0.783 | 0.662 | 0.743 | 0.599 | 0.859 | 0.547 | 0.564 | 0.187 | 0.205 | 0.178 | 0.189 | 0.217 |  |  |  |  |  |
| NCI-H2009 | 1.12 | 0.739 | 0.973 | 0.911 | 1.01 | 0.536 | 0.73 | 0.448 | 0.48 | 1.08 | 1.04 | 1.02 | 0.971 | 0.983 |  |  |  |  |  |
| NCI-H441 |  |  |  |  |  | 0.536 | 0.582 |  | 0.651 | 0.333 | 0.515 | 0.331 | 0.306 | 0.368 | 1.27 | 1.12 | 1.04 | 1.13 | 1.13 |
| NCI-H1563 | 0.889 | 0.89 | 0.993 | 0.859 | 1 | 0.688 | 0.709 | 0.731 | 0.679 | 0.472 | 0.499 | 0.525 | 0.533 | 0.487 |  |  |  |  |  |
| COR-L 105 | 0.392 | 0.387 | 0.356 | 0.35 | 0.351 | 0.716 | 0.984 | 0.517 | 0.671 | 0.798 | 0.781 | 1.13 | 0.561 | 1.04 |  |  |  |  |  |
| NCI-H522 |  |  |  |  |  | 0.671 | 0.711 | 0.861 | 0.595 | 0.877 | 1.21 | 0.981 | 1.18 | 1.05 | 0.728 | 0.907 | 0.952 | 0.748 | 0.758 |
| SK-MES-1 | 0.478 | 0.466 | 0.463 | 0.505 | 0.458 | 0.599 | 0.602 | 0.566 | 0.591 | 0.939 | 0.823 | 0.777 | 0.831 | 0.772 |  |  |  |  |  |
| NCI-H520 | 0.927 | 0.87 | 1 | 0.903 | 0.993 | 0.261 | 0.21 | 0.224 | 0.269 | 0.216 | 0.216 | 0.234 | 0.222 | 0.21 |  |  |  |  |  |
| EBC-1 | 0.197 | 0.193 | 0.252 | 0.203 | 0.194 |  |  |  |  |  |  |  |  |  |  |  |  |  |  |
| ChaGo-K-1 |  |  |  |  |  | 0.497 | 0.596 | 0.57 | 0.545 | 0.679 | 0.625 | 0.785 | 0.557 | 0.556 | 0.939 | 0.902 | 0.922 | 0.858 | 0.904 |
| NCI-H1648 |  |  |  |  |  |  | 0.266 | 0.228 | 0.301 |  |  |  |  |  |  | 0.643 | 0.756 | 0.583 | 0.614 |
| SW 1573 | 1.13 | 1.17 | 1.04 | 0.897 | 1.02 | 0.72 | 0.66 | 0.662 | 0.862 | 0.295 | 0.331 | 0.273 | 0.206 | 0.28 |  |  |  |  |  |
| NCI-H1299 | 1.03 | 0.98 | 0.994 | 0.97 | 0.962 |  |  |  |  |  |  |  |  |  |  |  |  |  |  |
| SK-LU-1 | 1.08 | 0.906 | 0.803 | 0.377 | 0.407 | 0.288 | 0.273 | 0.344 | 0.253 | 0.231 | 0.195 | 0.189 | 0.191 | 0.24 |  |  |  |  |  |
| NCI-H1623 |  |  |  |  |  | 0.422 | 0.407 | 0.457 | 0.432 |  | 0.488 | 0.416 | 0.361 | 0.519 |  |  |  |  |  |
| A549 | 0.989 | 1.03 | 1.01 | 1.03 | 0.912 |  |  |  |  |  |  |  |  |  |  |  |  |  |  |
| COR-L23 | 1.25 | 1.03 | 1.12 | 1.02 | 0.948 | 0.799 | 0.721 | 0.768 | 0.756 | 0.639 | 0.669 | 0.737 | 0.696 | 0.612 |  |  |  |  |  |
| HCC-78 | 0.938 | 0.602 | 0.791 | 0.321 | 0.826 | 0.382 | 0.406 | 0.33 | 0.311 |  |  |  |  |  | 0.668 | 0.568 | 0.899 |  | 0.566 |
| UMC-11 | 1.09 | 1.06 | 1.09 | 0.894 | 0.685 | 0.469 | 0.53 | 0.476 | 0.454 | 1.05 | 1.07 | 1.17 | 0.971 | 0.66 |  |  |  |  |  |
| NCI-H2023 | 0.894 | 0.67 | 0.86 | 0.773 | 0.868 | 0.286 | 0.44 | 0.374 | 0.368 | 1.04 | 0.85 | 0.874 | 0.675 | 0.691 |  |  |  |  |  |
| Calu-6 | 1.17 | 1.07 | 1.11 | 1.13 | 1.16 |  |  |  |  |  |  |  |  |  |  |  |  |  |  |
| IA-LM | 0.913 | 0.976 | 0.935 | 0.758 | 0.716 |  |  |  |  |  |  |  |  |  |  |  |  |  |  |
| HCC-366 | 1.18 | 1 | 1.1 | 1.08 | 1.07 | 0.654 | 0.995 |  | 0.934 |  |  |  |  |  | 0.286 | 0.258 | 0.376 | 0.311 | 0.338 |
| NCI-H661 |  | 0.599 | 0.506 | 0.433 | 0.508 | 0.6 | 0.725 | 0.722 | 0.676 | 0.977 | 0.931 | 0.934 | 0.879 | 0.843 |  |  |  |  |  |
